Columns and labels:
Format in all cases: cell-based
miR-30a-3p = assay: miRNA sensor (Luc-T30 reporter with miR-30a-3p target sites), dual luciferase assay of HepG2 cells; conditions: reporter with miR-30 target sequence, endogenously expressed miR-30, FIG. 7
Experimental: In FIG. 6, top left panel, the blue arrowheads in Luc-T30 indicate artificial target sequence against miR-30a-3p. Luc-AT30 has an artificial sequence complementary to that in Luc-T30. […] Relative luciferase activity was calculated by dividing the reporter (Firefly) luciferase activity with co-transfected Renilla luciferase activity. Luciferase activity was decreased by transfecting Luc-T30 in HepG2 (orange bars) without changes in the amount of its mRNA (blue bars). Error bars represent the standard deviation (SD) of three triplicate experiments. […] Error bars represent the standard deviation (SD) from three triplicate experiments. **P=0.004; *****P=0.00001.
This reporter contains the target sequence of miR-30. In the miR-30 system, the endogenously expressed miR-30 was used and, in this cell line, miR-30 has been processed completely. Thus, the addition of enoxacin had no effect.

[1] = system: siRNA-mediated mRNA degradation and gene knock-down (GFP siRNA); assay: GFP reporter screen: 293 cells stably expressing GFP and an siRNA hairpin against GFP; conditions: human 293 cells, GFP reporter with siRNA hairpin against GFP; Spectrum Collection screen
Experimental: FIG. 2 discloses one embodiment of the cell-based reporter system of the invention. In this example, a human 293-cell line stably expressing a reporter gene, GFP, was used. This cell line was further transfected with a construct that expresses siRNA hairpin against GFP, which can decrease the level of GFP expression. Individual clones were isolated with greatly (although not completely) reduced GFP expression.
Using the above-identified clones, a screen was performed using The Spectrum Collection (MicroSource Discovery Systems, Inc., Gaylordsville, Conn., United States of America), which contains 2000 biologically active and structurally diverse compounds from libraries of known drugs, experimental bioactives, and pure natural products. For example, in one embodiment, a pilot screen of this library identified one inhibitor and one enhancer of siRNA-mediated mRNA degradation.
To identify the chemical compounds that modulate the siRNA and miRNA pathway, a screening strategy was used. A human 293-cell line stably expressing a reporter gene, GFP, was used. This cell line was further transfected with a construct that expresses siRNA hairpin against GFP, which could knock down the expression of GFP. […]

[2] = system: shRNA against Luciferase mRNA; assay: GL-3 luciferase reporter transfected into cells expressing shRNA against Luciferase mRNA; conditions: GL-3 luciferase plus shLuc, FIG. 5
Description: In this example, a luciferase reporter construct GL-3 was transfected into the cells expressing shRNA against Luciferase mRNA.

Row | Compound | miRNA-mediated translational suppression (miR-30a-3p) | effect on siRNA-mediated mRNA degradation and gene knock-down [1] | knock-down efficiency of shRNA against luciferase mRNA (relative luciferase activity) [2] | knock-down efficiency of shRNA against luciferase mRNA (relative luciferase activity) ([2]; listed as ciproflaxin)
1 | COc1cc(C(=O)NCc2ccc(OCCN(C)C)cc2)cc(OC)c1OC [RNAi-I] | released the miRNA-mediated translational suppression |  |  | 
2 | COc1cc(C(=O)NCc2ccc(OCCN(C)C)cc2)cc(OC)c1OC [trimethobenzamide] |  | inhibit siRNA-mediated mRNA degradation and gene knock-down |  | 
3 | CCn1cc(C(=O)O)c(=O)c2cc(F)c(N3CCNCC3)nc21 [enoxacin] | no effect | enhance siRNA-mediated mRNA degradation and gene knock-down | increased the knock-down efficiency | 
4 | O=C(O)c1cn(C2CC2)c2cc(N3CCNCC3)c(F)cc2c1=O [ciprofloxacin] |  |  | enhance siRNA-mediated mRNA degradation | increased the knock-down efficiency

From patent US20090306035A1, “Compounds and Methods for modulating the Silencing of a Polynucleotide of Interest” (Emory University, priority 2005, published 2009)
